According to publication PMC7822874, “Chemoprotective antimalarials identified through quantitative high-throughput screening of Plasmodium blood and liver stage parasites” (Scientific Reports, 2021):
Read-outs that look alike come from different tables or passages of the source.

System: Plasmodium falciparum Dd2 asexual blood stage parasites
Test: microbe, parasite or virus in culture
Design: species or system Plasmodium falciparum Dd2 in human erythrocytes; single determination (one 11-point concentration-response curve)
Settings: Plasmodium falciparum, DD2, Erythrocyte, 72 h

Structure (SMILES) | AC50 (read-out: AC50) [µM] | AC50 [µM]
O=C(NNc1nc(-c2ccc(Br)cc2)cs1)c1ccco1 [MLS000699189-01] | 5.31 | 
COc1ccc(-n2nc(C(=O)NCCc3ccc(OC)c(OC)c3)c3c4ccccc4n(C)c3c2=O)cc1Cl [NCGC00108876-01] | 2.99 | 
Cc1ccc(OCCSc2nc3ccc(NC(=O)c4cccs4)cc3s2)cc1 [NCGC00118830-01] | 2.99 | 
CCOc1cc(C2CC(=O)NC3=C2C(=O)C(C(=O)OC)C(C)C3)cc(Br)c1O (stereo not shown) [MLS000090952-01] | 6.68 | 
COc1ccc(-c2nc3c(c(SCc4ccc(Br)cc4)n2)Cc2c(CO)cnc(C)c2O3)cc1 [NCGC00122580-01] | 0.0668 | 
Cc1cc(NC(=O)c2cc(-c3ccco3)on2)nn1Cc1ccc(Cl)cc1 [MLS000087231-01] | 8.41 | 
CC1C(=O)C(C)C(c2cc(Cl)ccc2O)NC1c1cc(Cl)ccc1O (stereo not shown) [MLS001197743-01] | 6.68 | 
O=C(Nc1ccc(F)cc1F)N1CCOc2ccc(CN3CCc4ccccc4C3)cc2C1 [NCGC00471236-01] | 16.8 | 
Cc1ccccc1CN1C(=O)CN=C(c2ccccc2)c2cc(Cl)ccc21 [NCGC00140581-01] | 16.8 | 
Cc1ccccc1NC(=O)c1c(NC(=O)c2ccco2)sc2c1CCC(C(C)(C)C)C2 (stereo not shown) [NCGC00099842-01] | 13.3 | 
Cc1cc2nc3n(c(=O)c2n1CC(=O)Nc1ccccc1C(C)C)CCCCC3 [NCGC00455404-01] | 8.41 | 
Cc1noc(C)c1-c1cc2cc(CN(C)C)oc2c(NCCc2ccccc2)n1 [NCGC00417471-01] | 13.7 | 
Cc1cc2cc(-c3c(C)noc3C)nc(N(C)CCN(C)C)c2o1 [NCGC00417474-01] | 12.2 | 
COc1ccc(-c2n[nH]c3ncc(-c4ccc([S+](C)(=O)[O-])cc4)nc23)c(C)c1 [NCGC00419180-01] | 15.3 | 
O=C(c1cc(C(=O)NCc2ccccc2)c(=O)n(Cc2ccccc2)c1)c1cc(Br)ccc1O [MLS000402314-01] | 4.73 | 
CSc1cccc(Nc2nc3c([S+](=O)([O-])c4ccccc4)nnn3c3ccc(Cl)cc23)c1 [NCGC00112212-01] | 1.88 | 
CCOc1ccc(-c2cn3c(n2)sc2cc(C(=O)NC(C)C45CC6CC(CC(C6)C4)C5)ccc23)cc1 (stereo not shown) [NCGC00113230-01] | 5.96 | 
Cc1cc(C)c(CNC(=O)c2cc(-c3ccnn3C)cc3c2OCCN3C(C)C)c(=O)[nH]1 [NCGC00417130-01] | 15.3 | 
OCc1cccc(-c2ccc3ncc(Nc4ccc(OCCN5CCCC5)cc4)n3n2)c1 [NCGC00412543-01] | 3.44 | 
CO/N=C1\CN(c2nc3c(cc2F)c(=O)c(C(=O)O)cn3C2CC2)CC1CN (stereo not shown) [NCGC00095182-01] | 9.44 | 
CCOC(=O)C1CCN(C(=O)c2cc3c(n2C)CCN(Cc2ccccc2)C3)CC1 [NCGC00430564-01] | 10.6 | 
CC1CCCN(Cc2c(O)ccc3c(=O)c(Oc4ccccc4Cl)c(C(F)(F)F)oc23)C1 (stereo not shown) [NCGC00101512-01] | 2.11 | 
O=C(CSc1nc(-c2ccccc2)no1)N1CCN(c2ccc(F)cc2)CC1 [NCGC00127880-01] | 4.22 | 
Cc1cccc(-c2cc(C(=O)Nc3ccncc3)c3ccccc3n2)c1 [MLS001147429-01] | 8.41 | 
COc1ccc2c(c1OC)C(=O)N1N=C(c3ccc(O)cc3)CC21 (stereo not shown) [MLS000570475-01] | 16.8 | 
CCc1cccc(NC(c2nnc(-c3ccccc3)o2)c2ccc(F)cc2Cl)c1 (stereo not shown) [NCGC00129460-01] | 6.68 | 
COc1ccc(S(=O)(=O)N2CCN(/C(S)=N/CC3CCCO3)CC2)cc1OC (stereo not shown) [MLS001035648-01] | 6.68 | 

Structure (SMILES) | AC50 (read-out: AC50) [µM] | AC50 [µM]
CC(=O)NCCNC[C@@H]1C=C(C)[C@H](Cc2nnc(-c3ccccc3)o2)C[C@H]1C(C)C [NCGC00395892-01] | 17.2 | 
CCOC(=O)c1sc(NC(=O)c2nc3ncccn3n2)c(C(=O)OC(C)C)c1C [NCGC00141358-01] | 2.66 | 
CC(C)(C)OC(=O)N1CCC(c2c(C(=O)NCCN3CCc4ccccc4C3)cnn2-c2ccc(F)cc2F)CC1 [NCGC00127087-01] | 5.31 | 
O=C1N=C(NC2CCCCC2)C2(CCN(Cc3ccc(F)cc3)C2)N1c1cc(F)cc(F)c1 (stereo not shown) [NCGC00374193-01] | 4.22 | 
CCN1CCN(Cc2ccc(NC(=O)c3ccc(C)c(NC(=O)C4=NN(c5ccccc5)C(=O)C4)c3)cc2C(F)(F)F)CC1 [MLS003105987-01] |  | 8.41
COc1cccc(Nc2ccc3c(n2)C(C)(C(=O)NCC2CC2)CN(C)C3)c1 (stereo not shown) [NCGC00414531-01] | 12.2 | 
O=C1c2c(nc(CN3CCCC(CO)C3)n2Cc2ccccc2)NCCN1Cc1cccc(Cl)c1 (stereo not shown) [NCGC00415148-01] | 15 | 
Cc1ccc(N(C)C2=NC(=O)CS2)cc1Cl [MLS001164579-01] | 9.44 | 
OC1=C2C(=Nc3ccccc3SC2c2c(F)cccc2Cl)c2ccccc21 (stereo not shown) [NCGC00108823-01] | 9.44 | 
COc1cc2c(cc1OC)C(COc1ccc3c(C)cc(=O)oc3c1)N(C(=O)Cc1ccc(F)cc1)CC2 (stereo not shown) [NCGC00104919-01] | 5.96 | 
CC(NC(=O)Cn1c(-c2cccs2)cc2cc(F)ccc21)c1ccccc1 (stereo not shown) [NCGC00123911-01] | 2.66 | 
COCCOc1cc(-c2noc([C@@H]3CCCN3CC3CC3)n2)ccn1 [NCGC00394865-01] | 15.3 | 
O=C(c1ccccc1F)N1CCC2(CC1)COc1ccccc1CN2 [NCGC00477550-01] | 4.33 | 
Cc1ccc2nc(-c3ccc(O)c(O)c3)cn2c1 [MLS001209043-01] | 13.3 | 
CCn1c(N2CCC(C)CC2)nc2c1c(=O)n(C)c(=O)n2C [MLS000115844-01] | 5.96 | 
Cc1noc(-c2cccs2)c1C(=O)NC(C)c1cccc2ccccc12 (stereo not shown) [NCGC00358764-02] | 0.668 | 
c1ccc(-c2nc(-c3ccncc3)no2)c(OC2CCN(C3CCCC3)C2)c1 (stereo not shown) [NCGC00458106-01] | 15 | 
CC1=C[C@@H](CNC(=O)COc2ccccc2)[C@H](C(C)C)C[C@H]1Cc1nnc(-c2cncn2C)o1 [NCGC00394594-01] | 13.3 | 
CCOC(=O)c1c(CN(C)C)oc2cc(CN(C)C)c(O)c(CSc3ccccc3)c12 [MLS000038262-01] | 0.596 | 
COc1ccc(-c2cnc3[nH]cc(CC(=O)NCc4cccnc4)c3c2)cc1OC [NCGC00412448-01] | 1.53 | 
CCc1ccc(-c2nn(CC(=O)NC3CCCCC3)c3c2cnc2ccc(OC)cc23)cc1 [NCGC00130391-01] | 9.44 | 
CCC(C)(C)n1nnnc1C(c1cccnc1)N1CCN(c2cccc(C(F)(F)F)c2)CC1 (stereo not shown) [MLS000122548-01] | 6.68 | 
Cc1cccc(C(=O)N2CCc3cc(CNC(=O)c4ccc(Br)o4)ccc32)c1 [NCGC00137781-01] | 9.44 | 
Cc1ccccc1OCCn1cc(C(=O)c2ccco2)c2ccccc21 [NCGC00101854-01] | 5.31 | 
Cc1cc(CN2CCC(CO)(Cc3ccccc3Cl)CC2)cc(C)c1O [NCGC00426527-01] | 16.8 | 
Cc1ccc(NC(=O)CC2SC(NC3CCCCC3)=NC2=O)cc1 (stereo not shown) [MLS000700518-01] | 11.9 | 
Cc1ccc(CN2CCC(CNC(=O)c3cnn(-c4ccc(C)cc4)c3C3CCN(C(=O)OC(C)(C)C)CC3)CC2)cc1 [NCGC00126945-01] | 8.41 | 

Structure (SMILES) | AC50 (read-out: AC50) [µM] | AC50 [µM]
COc1ccc(NC(=O)O[C@@H]2CC[C@]3(C)C(CC[C@@H](O)[C@H]3CC(=O)NCc3ccccc3OC)[C@]2(C)CO)cc1 (stereo partly shown) [NCGC00398535-01] | 6.68 | 
N#Cc1cc(C#N)c(N2CCN(c3cccc(Cl)n3)CC2)nc1N [MLS000325470-01] | 3.35 | 
COc1ccc2cc1Nc1ccc(cc1)C[C@H](NCc1ccc(C)o1)C(=O)N(C)[C@H](C(=O)NCCC(C)C)C2 [NCGC00410286-01] | 5.96 | 
CCc1c(C)[nH]c2ccccc2c1=O [MLS000030676-01] | 10.6 | 
CCC(=O)C1=C(c2cccc([N+](=O)[O-])c2)N(C(=O)CC)n2c(nnc2-c2ccccc2)S1 [NCGC00137270-01] | 5.31 | 
CCOC(=O)c1nnn(-c2nonc2N)c1-c1ccc(Cl)cc1 [MLS000727794-01] | 5.31 | 
N#Cc1cccc(C(=O)N2CCCN(Cc3ccncc3)C(c3ccccc3)CC(=O)NCC2)c1 (stereo not shown) [NCGC00467150-01] | 7.5 | 
O=C(c1ccccc1)N1CCC(Cc2nnc(-c3ccncc3)[nH]2)CC1 [NCGC00458326-01] | 15 | 
CC(C)CCNC(=O)c1cc(C(=O)c2cc(F)ccc2O)cn(CCC(C)C)c1=O [MLS000761418-01] | 2.11 | 
Oc1cc2c(cc1CN1CCN(c3ccccc3)CC1)CCC2 [MLS000058156-01] |  | 3.35
CC(C)(C)c1ccc(C(=O)N2CCN(C(=O)c3nnn4c3COC(c3ccccc3)C4)CC2)cc1 (stereo not shown) [NCGC00449161-01] | 10.6 | 
O=C(CN1CCN(C(=O)c2ccco2)CC1)Nc1cc(C(F)(F)F)ccc1Cl [MLS000047443-01] | 7.5 | 
COCCNC(=O)CSc1nc(-c2cc(OC)c(OC)c(OC)c2)[nH]c1-c1ccc(Cl)cc1 [NCGC00107926-01] | 8.41 | 
O=C(Nc1ccc(N2CCOCC2)c(Cl)c1)c1nc[nH]n1 [MLS000072688-01] | 9.44 | 
COc1cccc(CN2CCCC(NCc3cc(C)ccc3-n3cccn3)C2)c1 (stereo not shown) [NCGC00427605-01] | 2.99 | 
COCCNc1cc(N2CCN(C3CCCCC3)CC2)c2noc3c2c1C(=O)c1ccccc1-3 [NCGC00111067-01] | 15 | 
CN1Cc2ccc(Nc3ccccc3)nc2C(C)(C(=O)NCc2ccc3c(c2)OCO3)C1 (stereo not shown) [NCGC00414588-01] | 13.7 | 
Cc1cc(OC(C)C(=O)NCCc2c[nH]c3ccccc23)c2c(C)cc(=O)oc2c1 (stereo not shown) [MLS001158613-01] | 2.66 | 
Cc1oc2ccc(O)c(CN(C)Cc3ccccc3)c2c1C(=O)Nc1ccccc1 [NCGC00115689-01] | 2.37 | 
O=C(Nc1ccc(Cl)cc1)Nc1nc(-c2ccccc2O)cs1 [MLS000774885-01] | 6.68 | 
C=CCCC(CN1CCCC1)Oc1ccc(C(=O)N2CCCC2)cn1 (stereo not shown) [NCGC00435125-01] | 13.3 | 
COc1cc(C(=O)OCC(=O)N2CCCCC2C)cc(NC(=O)c2cccs2)c1OC (stereo not shown) [MLS001003405-01] | 0.473 | 
Clc1ccc(NNc2ccnc3cc(Cl)ccc23)cc1 [MLS000537447-01] | 1.5 | 
Cc1cc(Oc2c(C(F)(F)F)oc3c(CN4CCC(C)CC4)c(O)ccc3c2=O)cc(C)c1Cl [NCGC00101140-01] | 0.75 | 
Cc1ccc(Nc2cc(C)nn2-c2nc(C)cc(C)n2)cc1 [MLS000048464-01] | 6.68 | 
